In US20240287089A1, “Preparation and Uses of 7-Azaindenoisoquinolines” (Purdue Research Foundation, priority 0001, published 2024) one finds GI50 data, which are given here for nine molecules.

As a reminder, the GI50 is the concentration giving 50% growth inhibition.

In one assay the test system is NCI-60 cancer cell lines. The experiment in a line: NCI-60 cytotoxicity assay, MGM. In kind it is cell-based. Conditions: Homo sapiens; entire panel of NCI-60 cancer cell lines; read-out: MGM (approximate average of GI50 values across the NCI-60 panel). Here is the method:
(§1) The antiproliferative activities of the indenoisquinoline compounds are determined in the NCI-60 cancer cell lines of the National Cancer Institute Developmental Therapeutics Program (NCI-DTP). […] Cancer cells are incubated with the test compounds at five concentrations ranging from 100 μM to 10 nM for 48 h. After the treated cancer cells are stained with sulforhodamine B dye, the percentage growth is plotted as a function of the common logarithm of the tested compound concentration. […] The approximate average of GI50 values across the entire panel of NCI-60 cancer cell lines for each compound is recorded as the MGM value.
(§2) NCI-60 Cytotoxicity Assay. Compounds were submitted to the National Cancer Institute Developmental Therapeutic Program to determine their growth-inhibitory potentials in NCI-60 cell lines. All compounds satisfied the pre-screening proceeded into the 5-dose cell viability assay, in which cells were treated for 48 h at 5 dosages ranging from 100 μM to 10 nM.

Another assay relates to OVCAR-3 (Ovarian). The experiment in a line: NCI-60 cytotoxicity assay. In kind it is cell-based, human. As to conditions: Homo sapiens; OVCAR-3 ovarian; 48 h, sulforhodamine B; read-out: Comparative Cytotoxicity GI50, Ovarian OVCAR-3. Here is the method:
as §1, §2

The next assay relates to DU-145 (Prostate). Briefly: NCI-60 cytotoxicity assay. Conditions: Homo sapiens; DU-145 prostate; 48 h, sulforhodamine B; read-out: Comparative Cytotoxicity GI50, Prostate DU-145. The class given is cell-based, human. How it is done: as §1, §2
The next assay concerns UACC-62 (Melanoma). Briefly: NCI-60 cytotoxicity assay. In kind it is cell-based, human. As to conditions: Homo sapiens; UACC-62 melanoma; 48 h, sulforhodamine B; read-out: Comparative Cytotoxicity GI50, Melanoma UACC-62. How it is done:
as §1, §2

The subject of another assay is HOP-62 (Lung). Briefly: NCI-60 cytotoxicity assay. In kind it is cell-based, human. As to conditions: Homo sapiens; HOP-62 lung; 48 h, sulforhodamine B; read-out: Comparative Cytotoxicity GI50, Lung HOP-62. Here is the method:
as §1, §2

A further assay has as its system SN12C (Renal). Briefly: NCI-60 cytotoxicity assay. The class given is cell-based, human. Conditions: Homo sapiens; SN12C renal; 48 h, sulforhodamine B; read-out: Comparative Cytotoxicity GI50, Renal SN12C. How it is done: as §1, §2
The next assay deals with HCT-116 (Colon). Briefly: NCI-60 cytotoxicity assay. The class given is cell-based, human. As to conditions: Homo sapiens; HCT-116 colon; 48 h, sulforhodamine B; read-out: Comparative Cytotoxicity GI50, Colon HCT-116. How it is done:
as §1, §2

The next assay concerns MCF7 (Breast). Briefly: NCI-60 cytotoxicity assay. In kind it is cell-based, human. As to conditions: Homo sapiens; MCF7 breast; 48 h, sulforhodamine B; read-out: Comparative Cytotoxicity GI50, Breast MCE7. How it is done:
as §1, §2

The test system of a further assay is SF-539 (CNS). Briefly: NCI-60 cytotoxicity assay. The class given is cell-based. As to conditions: Homo sapiens; SF-539 CNS; 48 h, sulforhodamine B; read-out: Comparative Cytotoxicity GI50, CNS SF-539. How it is done:
as §1, §2

Structures are written as SMILES.

As to `COc1cc2c3c(n(CCCNC4CCCC4)c(=O)c2cc1OC)-c1cc2c(cc1C3=O)OCO2` [A3], the 50% growth inhibitory concentration (GI50) was found to be 2690 nM in the assay on NCI-60 cancer cell lines; 1640 nM in the assay on OVCAR-3 (Ovarian); 1440 nM in the assay with DU-145 (Prostate); 13000 nM with UACC-62 (Melanoma); 2380 nM with HOP-62 (Lung); 1800 nM in the assay on SN12C (Renal). Also, the GI50 was 1200 nM in the assay on HCT-116 (Colon), 670 nM in the assay on MCF7 (Breast) and 1510 nM in the assay on SF-539 (CNS).

As for `COc1cc2c3c(n(CCCN4CCCC4)c(=O)c2cc1OC)-c1cc2c(cc1C3=O)OCO2` [A4], the 50% growth inhibitory concentration (GI50) in the assay on NCI-60 cancer cell lines amounted to 1100 nM; in the assay with OVCAR-3 (Ovarian) it was 1500 nM; in the assay with DU-145 (Prostate), 1310 nM; in the assay with UACC-62 (Melanoma) it was 1480 nM; in the assay with HOP-62 (Lung) it was 800 nM; in the assay on SN12C (Renal), 1640 nM. Besides, the concentration for 50% growth inhibition (GI50) with HCT-116 (Colon) is 1140 nM; in the assay on MCF7 (Breast), 380 nM; with SF-539 (CNS) it was 1330 nM.

As to `COc1cc2c3c(n(CCCN4CCC[C@H]4C(N)=O)c(=O)c2cc1OC)-c1cc2c(cc1C3=O)OCO2` [A5], the GI50 stood at 125 nM with NCI-60 cancer cell lines; 160 nM in the assay on OVCAR-3 (Ovarian); 38 nM in the assay on DU-145 (Prostate); 21 nM with UACC-62 (Melanoma); 31 nM with HOP-62 (Lung); 42 nM with SN12C (Renal). The GI50 in the assay with HCT-116 (Colon) was determined as 35 nM; with MCF7 (Breast), 10 nM; in the assay on SF-539 (CNS), 30 nM.

With `COc1cc2c3c(n(CCCN4CCCCC4)c(=O)c2cc1OC)-c1cc2c(cc1C3=O)OCO2` [A6], the GI50 is 1050 nM with NCI-60 cancer cell lines; 1630 nM in the assay on OVCAR-3 (Ovarian); 1370 nM with DU-145 (Prostate); 1380 nM in the assay on UACC-62 (Melanoma); 1050 nM in the assay with HOP-62 (Lung); 1610 nM in the assay on SN12C (Renal). For the same molecule, the results for the GI50 in the assay on HCT-116 (Colon), in the assay with MCF7 (Breast) and in the assay with SF-539 (CNS) were 420 nM, 140 nM and 1460 nM, respectively.

Regarding `COc1cc2c3c(n(CCCNC4CCCCC4)c(=O)c2cc1OC)-c1cc2c(cc1C3=O)OCO2` [A7], the 50% growth inhibitory concentration (GI50) in the assay on NCI-60 cancer cell lines stood at 6020 nM; in the assay with OVCAR-3 (Ovarian), 11000 nM; in the assay on DU-145 (Prostate), 1840 nM; in the assay with UACC-62 (Melanoma), 28400 nM; in the assay on HOP-62 (Lung), 15900 nM; in the assay with SN12C (Renal), 18600 nM. The concentration for 50% growth inhibition (GI50) in the assay on HCT-116 (Colon) was found to be 1320 nM; in the assay with MCF7 (Breast), 1060 nM; with SF-539 (CNS), 7740 nM.

Consider `COc1cnc2c(c1)C(=O)c1c-2n(CCCn2ccnc2)c(=O)c2cc(OC)c(OC)cc12` [A8], for which the 50% growth inhibitory concentration (GI50) amounted to 240 nM with NCI-60 cancer cell lines; 600 nM in the assay with OVCAR-3 (Ovarian); 61 nM in the assay on DU-145 (Prostate); 40 nM in the assay with UACC-62 (Melanoma); 42 nM in the assay with HOP-62 (Lung); 56 nM in the assay with SN12C (Renal). Further, the figures for the GI50 in the assay with HCT-116 (Colon), with MCF7 (Breast) and in the assay with SF-539 (CNS) were 110 nM, 30 nM and 53 nM, respectively.

Take `CCNCCCn1c2c(c3cc(OC)c(OC)cc3c1=O)C(=O)c1cc(OC)cnc1-2` [A9]: the GI50 is 1540 nM with NCI-60 cancer cell lines; 3600 nM in the assay on OVCAR-3 (Ovarian); 2160 nM in the assay on DU-145 (Prostate); 700 nM with UACC-62 (Melanoma); 320 nM in the assay on HOP-62 (Lung); 1440 nM in the assay with SN12C (Renal). Further, the values for the 50% growth inhibitory concentration (GI50) in the assay with HCT-116 (Colon), in the assay with MCF7 (Breast) and in the assay on SF-539 (CNS) were 420 nM, 160 nM and 800 nM, respectively.

As for `COc1cnc2c(c1)C(=O)c1c-2n(CCCNCC2CC2)c(=O)c2cc(OC)c(OC)cc12` [A10], the GI50 with NCI-60 cancer cell lines turned out to be 860 nM; in the assay with OVCAR-3 (Ovarian), 1820 nM; in the assay on DU-145 (Prostate) it was 960 nM; in the assay with UACC-62 (Melanoma), 840 nM; in the assay on HOP-62 (Lung), 670 nM; in the assay with SN12C (Renal), 440 nM. Besides, the GI50 in the assay on HCT-116 (Colon) stood at 400 nM; with MCF7 (Breast), 160 nM; in the assay on SF-539 (CNS) it was 1000 nM.

`COc1cnc2c(c1)C(=O)c1c-2n(CCCNC(C)C)c(=O)c2cc(OC)c(OC)cc12` [A11]: the GI50 with NCI-60 cancer cell lines was found to be 2340 nM; in the assay on OVCAR-3 (Ovarian) it was 8990 nM; with DU-145 (Prostate) it was 1270 nM; in the assay with UACC-62 (Melanoma) it was 2430 nM; with HOP-62 (Lung), 700 nM; in the assay with SN12C (Renal) it was 4190 nM. For the same molecule, the figures for the GI50 with HCT-116 (Colon), in the assay on MCF7 (Breast) and with SF-539 (CNS) were 1020 nM, 220 nM and 1360 nM, respectively.
